Assay results from patent EP3033337B1, “SUBSTITUTED IMIDAZOLES AS N-TYPE CALCIUM CHANNEL BLOCKERS” (Janssen Pharmaceutica NV, priority 2013, dated 2015).
Read-outs that look alike come from different tables or passages of the source.

How the values were obtained:
human N-type Ca channel [1] = target: T1, human N-type Ca channel (Homo sapiens, UniProt Q00975); assay: Calcium influx assay (FDSS), KCl depolarization, Fluo8 dye; assay type: cell-based; parameters: host or cells: HEK 293
Outline: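 HEK293 cells stably expressing the human N-type Ca channel were loaded with Fluo8 and washed in choline-based buffer (pH 7.2, 2 mM CaCl2, 2 mM KCl). Cells were preincubated with serially diluted compound for 15 min in the dark. Ca influx was then recorded by fluorescence after depolarization with 100 mM KCl.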

Rats = assay: Sciatic nerve ligation (SNL) model of neuropathic pain, L5/L6 spinal nerve ligation, von Frey filaments; assay type: in vivo; conditions: response at Tmax
Source text: Left L5 and L6 spinal nerves are isolated adjacent to the vertebral column and were ligated with 5-0 silk suture distal to the dorsal root ganglion, as described by Kim and Chung (1992). The incision was closed with the help of GLUture topical tissue adhesive. At 14 days post-surgery (one day prior to test compound administration), mechanical allodynia was quantified using eight von Frey filaments, calibrated in the range 0.4-15.1 g (Nielsen et al 2005). Rats were placed into individual plastic containers on top of a suspended wire mesh grid and acclimated to the test chambers for at least 15 min. Filaments were applied perpendicular to the mid-plantar paw surface, with enough force to cause slight buckling, and held in place for 6-8 sec until a response was noted as a sharp paw withdrawal, flinching, licking and/or biting immediately upon removal of the filament (Nielsen et al 2005). […] Test compounds of Formula (I) were administered and a response was measured at Tmax. The maximum possible effect (% MPE) was determined to be 100% if the sensitivity in the ipsilateral paw neared that of the contralateral paw. Values from vehicle-treated animals were considered 0 %. The compound effect was determined based on these values.

human N-type Ca channel [2] = target: T1, human N-type Ca channel; assay: Electrophysiological response, QPatch (depolarization -80 mV to +20 mV)
[3] = system: CFA-induced mechanical allodynia; assay: Complete Freund's Adjuvant (CFA) induced mechanical allodynia, Von Frey test; assay type: in vivo
Experimental: Animals arrived and were acclimatized for 1-2 weeks in a temperature-controlled room with a 12 h light/dark cycle and allowed free access to standard laboratory chow and water.
CFA (Sigma) was injected intra-plantar (75 µg/150 µL) from a concentration of 1:1 (diluted 1 mg/ mL of CFA in 1 mL ofPBS). CFA-induced mechanical allodynia was quantified by a Von frey test on day 2 (48 h post injection of CFA) and animals were randomized based on iPWT response (Dixon 1980). […] Animals were administered a compound of Formula (I) through appropriate route based on their pharmacokinetic properties. Responses were measured with a Von-Frey filament. The maximum possible effect (% MPE) was determined as 100% if sensitivity in ipsilateral paw neared that of the contralateral paw. Values from the vehicle-treated animals were considered 0%. The compound effect was determined based on these values.

[4] = HEK 293 cells expressing human N-type Ca channel, 100 mM KCl, read-out: N Type IC50 Data FDSS
[5] = N Type IC50 Data Qpatch Pulse=1, Pulse=1, concentration range 0.3-10 µM
[6] = N Type IC50 Data Qpatch Pulse=15, Pulse=15, concentration range 0.3-10 µM
[7] = read-out: Qpatch Pulse=1 (percent inhibition)
[8] = read-out: N Type IC50 Data Qpatch Pulse=15, Pulse=15, concentration range 0.01-1 µM
[9] = concentration range 0.01-0.3 µM
[10] = Pulse=15, concentration range 0.01-0.3 µM
[11] = N Type IC50 Data Qpatch Pulse=1, Pulse=1, concentration range 0.01-1 µM
[12] = N Type IC50 Data Qpatch Pulse=15, Pulse=15, concentration range 0.01-1 µM

T1 sequence (Q00975 whole entry): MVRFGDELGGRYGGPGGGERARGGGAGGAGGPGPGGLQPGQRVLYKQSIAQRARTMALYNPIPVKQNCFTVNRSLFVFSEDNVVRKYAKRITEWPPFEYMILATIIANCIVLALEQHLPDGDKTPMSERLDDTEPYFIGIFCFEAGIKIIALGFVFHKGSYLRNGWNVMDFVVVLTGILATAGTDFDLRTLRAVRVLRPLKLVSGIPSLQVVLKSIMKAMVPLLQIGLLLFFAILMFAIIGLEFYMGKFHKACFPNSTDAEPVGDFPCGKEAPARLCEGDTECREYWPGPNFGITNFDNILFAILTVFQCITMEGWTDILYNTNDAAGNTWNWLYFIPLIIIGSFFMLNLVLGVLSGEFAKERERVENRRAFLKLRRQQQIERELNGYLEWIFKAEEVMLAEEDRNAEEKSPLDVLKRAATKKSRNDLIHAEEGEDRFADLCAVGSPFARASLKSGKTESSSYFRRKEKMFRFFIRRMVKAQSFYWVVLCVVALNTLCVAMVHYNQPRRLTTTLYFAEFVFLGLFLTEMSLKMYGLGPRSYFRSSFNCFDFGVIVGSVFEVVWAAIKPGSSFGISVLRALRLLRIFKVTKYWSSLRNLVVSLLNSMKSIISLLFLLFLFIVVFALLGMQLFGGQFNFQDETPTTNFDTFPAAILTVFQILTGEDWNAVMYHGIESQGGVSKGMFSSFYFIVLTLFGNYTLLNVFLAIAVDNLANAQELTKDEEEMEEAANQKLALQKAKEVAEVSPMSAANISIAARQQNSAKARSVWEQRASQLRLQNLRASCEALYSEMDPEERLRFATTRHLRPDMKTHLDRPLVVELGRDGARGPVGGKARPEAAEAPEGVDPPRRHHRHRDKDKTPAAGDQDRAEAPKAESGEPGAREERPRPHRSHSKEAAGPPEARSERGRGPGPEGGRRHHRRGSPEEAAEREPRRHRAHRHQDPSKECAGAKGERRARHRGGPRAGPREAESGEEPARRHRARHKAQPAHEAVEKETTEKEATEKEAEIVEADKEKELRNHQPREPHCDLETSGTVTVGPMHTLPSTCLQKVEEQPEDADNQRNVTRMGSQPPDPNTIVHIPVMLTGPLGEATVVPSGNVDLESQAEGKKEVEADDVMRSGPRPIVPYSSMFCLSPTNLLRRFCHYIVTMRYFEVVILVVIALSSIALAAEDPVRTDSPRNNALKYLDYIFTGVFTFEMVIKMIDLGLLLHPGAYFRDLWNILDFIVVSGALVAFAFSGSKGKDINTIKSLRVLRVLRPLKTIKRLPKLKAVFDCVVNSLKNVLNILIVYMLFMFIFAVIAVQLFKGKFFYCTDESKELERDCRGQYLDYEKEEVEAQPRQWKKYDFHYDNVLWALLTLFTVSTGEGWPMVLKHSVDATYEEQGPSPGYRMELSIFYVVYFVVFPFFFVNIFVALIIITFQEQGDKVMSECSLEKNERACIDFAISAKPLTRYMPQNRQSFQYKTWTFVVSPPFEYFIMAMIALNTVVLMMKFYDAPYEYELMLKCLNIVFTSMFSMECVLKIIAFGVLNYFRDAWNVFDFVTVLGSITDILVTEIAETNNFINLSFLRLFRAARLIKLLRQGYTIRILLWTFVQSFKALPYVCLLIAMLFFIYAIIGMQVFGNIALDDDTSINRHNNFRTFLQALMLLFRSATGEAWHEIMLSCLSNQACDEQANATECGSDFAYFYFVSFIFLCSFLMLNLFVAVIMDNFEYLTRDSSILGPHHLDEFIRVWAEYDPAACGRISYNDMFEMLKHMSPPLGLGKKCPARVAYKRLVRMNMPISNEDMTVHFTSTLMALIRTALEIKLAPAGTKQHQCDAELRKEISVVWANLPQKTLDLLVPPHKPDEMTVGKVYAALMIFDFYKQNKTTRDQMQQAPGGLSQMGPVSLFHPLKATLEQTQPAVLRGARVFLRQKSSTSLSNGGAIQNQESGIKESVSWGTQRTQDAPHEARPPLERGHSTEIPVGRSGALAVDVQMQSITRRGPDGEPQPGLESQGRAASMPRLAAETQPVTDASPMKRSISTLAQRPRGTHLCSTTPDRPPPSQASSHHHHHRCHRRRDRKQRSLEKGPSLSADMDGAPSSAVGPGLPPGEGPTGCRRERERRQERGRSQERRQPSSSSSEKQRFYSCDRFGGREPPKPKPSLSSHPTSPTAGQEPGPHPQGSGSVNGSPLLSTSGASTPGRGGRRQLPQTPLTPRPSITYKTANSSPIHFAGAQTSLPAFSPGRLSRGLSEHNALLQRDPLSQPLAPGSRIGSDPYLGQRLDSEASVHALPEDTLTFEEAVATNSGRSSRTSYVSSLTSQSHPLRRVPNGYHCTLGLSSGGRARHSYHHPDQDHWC
T1 sequence (P54284 whole entry partner): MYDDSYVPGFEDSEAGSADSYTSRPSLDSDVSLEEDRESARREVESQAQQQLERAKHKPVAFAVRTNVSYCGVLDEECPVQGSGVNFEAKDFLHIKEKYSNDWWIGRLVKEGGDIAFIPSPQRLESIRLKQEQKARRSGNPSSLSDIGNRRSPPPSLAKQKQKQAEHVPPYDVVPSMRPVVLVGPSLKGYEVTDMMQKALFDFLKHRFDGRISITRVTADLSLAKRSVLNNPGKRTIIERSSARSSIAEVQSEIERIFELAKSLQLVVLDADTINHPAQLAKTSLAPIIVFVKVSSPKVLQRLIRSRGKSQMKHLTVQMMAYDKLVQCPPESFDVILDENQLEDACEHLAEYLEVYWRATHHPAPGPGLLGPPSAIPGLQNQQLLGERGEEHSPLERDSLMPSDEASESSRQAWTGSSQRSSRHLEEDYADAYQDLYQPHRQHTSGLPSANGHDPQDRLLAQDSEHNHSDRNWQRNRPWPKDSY
T1 sequence (P54289 25-956 partner limits assumed): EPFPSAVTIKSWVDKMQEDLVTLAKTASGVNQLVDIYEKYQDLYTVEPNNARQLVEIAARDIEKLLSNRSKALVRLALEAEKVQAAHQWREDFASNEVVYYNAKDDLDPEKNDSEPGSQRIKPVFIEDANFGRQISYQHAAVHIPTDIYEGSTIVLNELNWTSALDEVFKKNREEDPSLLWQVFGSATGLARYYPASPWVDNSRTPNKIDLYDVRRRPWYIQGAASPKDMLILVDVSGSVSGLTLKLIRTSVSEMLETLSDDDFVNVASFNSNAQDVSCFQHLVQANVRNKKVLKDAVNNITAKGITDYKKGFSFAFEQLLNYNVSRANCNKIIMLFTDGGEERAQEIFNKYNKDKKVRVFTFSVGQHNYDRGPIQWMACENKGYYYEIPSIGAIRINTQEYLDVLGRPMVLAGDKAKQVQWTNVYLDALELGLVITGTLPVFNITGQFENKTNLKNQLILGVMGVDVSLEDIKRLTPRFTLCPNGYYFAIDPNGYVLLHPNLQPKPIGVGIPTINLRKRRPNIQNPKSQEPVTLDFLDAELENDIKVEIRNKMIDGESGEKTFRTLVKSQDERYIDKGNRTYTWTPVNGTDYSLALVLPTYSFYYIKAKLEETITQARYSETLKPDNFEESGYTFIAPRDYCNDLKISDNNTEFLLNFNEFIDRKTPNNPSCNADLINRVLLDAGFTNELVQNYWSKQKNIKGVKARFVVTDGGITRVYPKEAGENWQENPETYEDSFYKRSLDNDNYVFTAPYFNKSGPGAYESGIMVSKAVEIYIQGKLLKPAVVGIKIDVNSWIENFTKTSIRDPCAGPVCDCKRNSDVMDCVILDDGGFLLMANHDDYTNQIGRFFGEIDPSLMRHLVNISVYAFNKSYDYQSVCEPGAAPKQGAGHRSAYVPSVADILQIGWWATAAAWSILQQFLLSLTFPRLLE
T1 sequence (P54289 957-1103 partner limits assumed): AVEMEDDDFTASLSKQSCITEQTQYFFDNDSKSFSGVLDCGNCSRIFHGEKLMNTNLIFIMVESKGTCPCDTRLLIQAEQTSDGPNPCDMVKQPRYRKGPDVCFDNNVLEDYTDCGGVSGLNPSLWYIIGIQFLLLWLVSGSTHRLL

Structure (SMILES) | IC50 (human N-type Ca channel [1]; [4]) | IC50 (human N-type Ca channel [2]; [5]) | IC50 (human N-type Ca channel [2]; [6]) | other results
COc1ncccc1-c1nc(C2CC(C)(C)OC(C)(C)C2)cn1-c1ccc(F)cc1 [Compound 10, 3-(1-(4-fluorophenyl)-4-(2,2,6,6-tetramethyltetrahydro-2H-pyran-4-yl)-1H-imidazol-2-yl)-2-methoxypyridine] | 401 nM | 5920 nM | 1470 nM | SNL(%MPE) (Rats; Dose 3 mg/kg): 12.17±11.24%; SNL(%MPE) (Rats; Dose 10 mg/kg): 40.53±13.64%; SNL(%MPE) (Rats; Dose 30 mg/kg): 54.59±13.37%; SNL(%MPE) (Rats; Dose 100 mg/kg): 85.45±8.44%
COc1ccccc1-c1nc(C2CC(C)(C)OC(C)(C)C2)cn1-c1ccc(Cl)cc1 [Compound 38, 1-(4-chlorophenyl)-2-(2-methoxyphenyl)-4-(2,2,6,6-tetramethyltetrahydro-2H-pyran-4-yl)-1H-imidazole] | 372 nM | 2400 nM | 769 nM | SNL(%MPE) (Rats; Dose 50 mg/kg): 87.01± 9.25%
COc1ncccc1-c1nc(C2CC(C)(C)OC(C)(C)C2)cn1-c1ccc(Cl)cc1 [Compound 11, 3-(1-(4-chlorophenyl)-4-(2,2,6,6-tetramethyltetrahydro-2H-pyran-4-yl)-1H-imidazol-2-yl)-2-methoxypyridine] |  |  |  | IC50 (human N-type Ca channel [1]): 82 nM; SNL(%MPE) (Rats; Dose 3 mg/kg): 28.29± 10.84%; SNL(%MPE) (Rats; Dose 10 mg/kg): 49.01±9.93%; SNL(%MPE) (Rats; Dose 30 mg/kg): 70.69±10.3%; SNL(%MPE) (Rats; Dose 60 mg/kg): 96.18±3.22%; CFA (% Reversal) ([3]; Dose 3 mg/kg): 20.97±7.88%; CFA (% Reversal) ([3]; Dose 10 mg/kg): 41.12±5.14%; CFA (% Reversal) ([3]; Dose 30 mg/kg): 55.8±11.32%; CFA (% Reversal) ([3]; Dose 60 mg/kg): 76.4±3.78%; inhibition at 10 µM (human N-type Ca channel [2]; [7]): 63%; inhibition at 10 µM (human N-type Ca channel [2]; read-out: Qpatch Pulse=15 (percent inhibition)): 21%
COc1ncccc1-c1nc(C2CC(C)(C)OC(C)(C)C2)cn1-c1ccc(F)c(F)c1F [Compound 16, 2-methoxy-3-(4-(2,2,6,6-tetramethyltetrahydro-2H-pyran-4-yl)-1-(2,3,4-trifluorophenyl)-1H-imidazol-2-yl)pyridine] | 359 nM |  |  | N Type IC50 Data Qpatch Pulse=1 (human N-type Ca channel [2]; [9]): poor fit(0.01-0.3 µM); N Type IC50 Data Qpatch Pulse=15 (human N-type Ca channel [2]; [10]): poor fit(0.01-0.3µM)
Cn1cnnc1-c1nc(C2CC(C)(C)OC(C)(C)C2)cn1-c1ccc(Cl)cc1 [Compound 26, 3-(1-(4-chlorophenyl)-4-(2,2,6,6-tetramethyltetrahydro-2H-pyran-4-yl)-1H-imidazol-2-yl)-4-methyl-4H-1,2,4-triazole] | 5760 nM |  |  | IC50 (human N-type Ca channel [2]; [11]): > 1000 nM; IC50 (human N-type Ca channel [2]; [12]): > 1000 nM
COc1ncccc1-c1nc(C2CC(C)(C)OC(C)(C)C2)cn1-c1cccc(C#N)c1 [Compound 48, 3-(2-(2-methoxypyridin-3-yl)-4-(2,2,6,6-tetramethyltetrahydro-2H-pyran-4-yl)-1H-imidazol-1-yl)benzonitrile] | 5410 nM |  |  | IC50 (human N-type Ca channel [2]; [11]): 222 nM; IC50 (human N-type Ca channel [2]; [12]): 843 nM
COc1ccccc1-c1nc(C2CC(C)(C)OC(C)(C)C2)cn1-c1ccc(F)cc1 [Compound 4, 1-(4-fluorophenyl)-2-(2-methoxyphenyl)-4-(2,2,6,6-tetramethyltetrahydro-2H-pyran-4-yl)-1H-imidazole] | 17 nM |  | 1060 nM | 
COc1ncccc1-c1nc(C2CC(C)(C)OC(C)(C)C2)cn1-c1ccc(F)c(Cl)c1 [Compound 46, 3-(1-(3-chloro-4-fluorophenyl)-4-(2,2,6,6-tetramethyltetrahydro-2H-pyran-4-yl)-1H-imidazol-2-yl)-2-methoxypyridine] | 255 nM |  | 2500 nM | 
COc1cnccc1-c1nc(C2CC(C)(C)OC(C)(C)C2)cn1-c1ccc(Cl)c(F)c1 [Compound 13, 4-(1-(4-chloro-3-fluorophenyl)-4-(2,2,6,6-tetramethyltetrahydro-2H-pyran-4-yl)-1H-imidazol-2-yl)-3-methoxypyridine] | 200 nM |  |  | IC50 (human N-type Ca channel [2]; [11]): > 1000 nM; IC50 (human N-type Ca channel [2]; [8]): > 1000 nM
COc1ccccc1-c1nc(C2CC(C)(C)OC(C)(C)C2)cn1-c1ccc(C)nc1 [Compound 5, 5-(2-(2-methoxyphenyl)-4-(2,2,6,6-tetramethyltetrahydro-2H-pyran-4-yl)-1H-imidazol-1-yl)-2-methylpyridine] | 191 nM | 5900 nM |  | 
COc1cccnc1-c1nc(C2CC(C)(C)OC(C)(C)C2)cn1-c1ccc(F)c(Cl)c1 [Compound 17, 2-(1-(3-chloro-4-fluorophenyl)-4-(2,2,6,6-tetramethyltetrahydro-2H-pyran-4-yl)-1H-imidazol-2-yl)-3-methoxypyridine] | 591 nM | 4400 nM | 5200 nM | 

The next lines start with results.

IC50 (human N-type Ca channel [1]; [4]) | IC50 (human N-type Ca channel [2]; [5]) | IC50 (human N-type Ca channel [2]; [6]) | Structure (SMILES) | other results
1300 nM |  |  | COc1ncncc1-c1nc(C2CC(C)(C)OC(C)(C)C2)cn1-c1ccc(C#N)cc1 [Compound 86, 4-(2-(4-methoxypyrimidin-5-yl)-4-(2,2,6,6-tetramethyltetrahydro-2H-pyran-4-yl)-1H-imidazol-1-yl)benzonitrile] | IC50 (human N-type Ca channel [2]; [8]): > 1000 nM
422 nM |  |  | COc1ncccc1-c1nc(C2CC(C)(C)OC(C)(C)C2)cn1-c1cc(F)ccc1F [Compound 71, 3-(1-(2,5-difluorophenyl)-4-(2,2,6,6-tetramethyltetrahydro-2H-pyran-4-yl)-1H-imidazol-2-yl)-2-methoxypyridine] | IC50 (human N-type Ca channel [2]; [11]): 5830 nM; N Type IC50 Data Qpatch Pulse=15 (human N-type Ca channel [2]; Pulse=15, concentration range 0.01-1 µM): poor fit(0.01- 1 µM)
6480 nM |  |  | COc1ccc(-n2cc(C3CC(C)(C)OC(C)(C)C3)nc2-c2cccnc2OC)cc1C#N [Compound 85, 2-methoxy-5-(2-(2-methoxypyridin-3-yl)-4-(2,2,6,6-tetramethyltetrahydro-2H-pyran-4-yl)-1H-imidazol-1-yl)benzonitrile] | IC50 (human N-type Ca channel [2]; [8]): > 1000 nM
360 nM | 4060 nM | 1720 nM | COc1ncccc1-c1nc(C2CC(C)(C)OC(C)(C)C2)cn1-c1ccc(F)c(Br)c1 [Compound 64, 3-(1-(3-bromo-4-fluorophenyl)-4-(2,2,6,6-tetramethyltetrahydro-2H-pyran-4-yl)-1H-imidazol-2-yl)-2-methoxypyridine] | 
177 nM |  | 413 nM | COc1ccccc1-c1nc(C2CC(C)(C)OC(C)(C)C2)cn1-c1ccc(Br)c(F)c1 [Compound 62, 1-(4-bromo-3-fluorophenyl)-2-(2-methoxyphenyl)-4-(2,2,6,6-tetramethyltetrahydro-2H-pyran-4-yl)-1H-imidazole] | inhibition at 10 µM (human N-type Ca channel [2]; [7]): 81%
322 nM | 4500 nM | 7900 nM | COc1ccccc1-c1nc(C2(O)CC(C)(C)OC(C)(C)C2)cn1-c1ccc(C(F)(F)F)nc1 [Compound 109, 4-(2-(2-methoxyphenyl)-1-(6-(trifluoromethyl)pyridin-3-yl)-1H-imidazol-4-yl)-2,2,6,6-tetramethyltetrahydro-2H-pyran-4-ol] | 
213 nM |  | 3500 nM | COc1ccccc1-c1nc(C2CC(C)(C)OC(C)(C)C2)cn1-c1ccc(F)c(Br)c1 [Compound 63, 1-(3-bromo-4-fluorophenyl)-2-(2-methoxyphenyl)-4-(2,2,6,6-tetramethyltetrahydro-2H-pyran-4-yl)-1H-imidazole] | inhibition at 10 µM (human N-type Ca channel [2]; [7]): 53%
120 nM |  |  | COc1ccccc1-c1nc(C2CC(C)(C)OC(C)(C)C2)c(C)n1-c1ccc(Cl)cc1 [Compound 90, 1-(4-chlorophenyl)-2-(2-methoxyphenyl)-5-methyl-4-(2,2,6,6-tetramethyltetrahydro-2H-pyran-4-yl)-1H-imidazole] | N Type IC50 Data Qpatch Pulse=1 (human N-type Ca channel [2]; [9]): poor fit(0.01-0.3 µM); N Type IC50 Data Qpatch Pulse=15 (human N-type Ca channel [2]; [10]): poor fit(0.01-0.3 µM)
